{
  "source": "patent US12577201B2",
  "about": "“Glutamine analogs” (Jacobio Pharmaceuticals Co., Ltd., priority 2020, dated 2026)",
  "tested_on": "MC38 tumor cells",
  "experiment": "Anti-tumor efficacy in MC38 model in C57BL/6 mouse (Example 11)",
  "format": "in vivo",
  "settings": "C57BL/6, MC38, 2 μmol/kg S.C. QD",
  "protocol": "Animal species: Mus musculus; Strain: C57BL/6; Age: 6-8 weeks; Sex: female. The MC38 tumor cells were maintained in vitro in DMEM medium supplemented with 10% FBS at 37° C., 5% CO2. The cells growing in an exponential growth phase were harvested and counted for tumor inoculation. The culture MC38 were harvested, re-suspended in PBS containing 50% Matrigel at a density of 1×10^7 cells/mL. Each mouse was inoculated subcutaneously in the right flank region with 1×10^6 cells in 0.1 mL of PBS containing 50% Matrigel for tumor development.\nThe treatments were started when the mean tumor size reached 82-129 mm^3 (average tumor size 102 mm^3). Each group contained 6 tumor bearing mice. Group 1 was treated with Vehicle (10% DMSO+90% Saline), S.C., QD.\nIn vivo efficacy was examined according to absolute tumor growth inhibition (TGI) and the safety was evaluated according to weight change and survival in mice.\nStatistical analysis of difference in tumor volume among the groups was performed using one-way ANOVA followed by individual comparisons using Games-Howell post-hoc test (equal variance not assumed). All data was analyzed using SPSS 22.0 software.",
  "data": [
    {"compound": "CO[C@@H](C)C(=O)N[C@@H](CCC(=O)C=[N+]=[N-])C(=O)OC(C)C", "note": "[Compound 2, isopropyl (S)-6-diazo-2-((S)-2-methoxypropanamido)-5-oxohexanoate]", "values": [
      {"measurement": "T/C (%)", "setting": "Example 11", "result": 17.5, "unit": "%"},
      {"measurement": "TGI (%)", "setting": "Example 11", "result": 82.5, "unit": "%"},
      {"measurement": "TV (mm^3) (Mean ± SEM) D6", "setting": "Example 11, D6", "result": "102 ± 7", "unit": "mm^3"},
      {"measurement": "TV (mm^3) (Mean ± SEM) D10", "setting": "Example 11, D10", "result": "167 ± 17", "unit": "mm^3"},
      {"measurement": "TV (mm^3) (Mean ± SEM) D13", "setting": "Example 11, D13", "result": "257 ± 51", "unit": "mm^3"},
      {"measurement": "TV (mm^3) (Mean ± SEM) D17", "setting": "Example 11, D17", "result": "306 ± 43", "unit": "mm^3"},
      {"measurement": "TV (mm^3) (Mean ± SEM) D20", "setting": "Example 11, D20", "result": "407 ± 33", "unit": "mm^3"},
      {"measurement": "TV (mm^3) at D21 (Mean ± SEM)", "setting": "Table 13, D21", "result": "407 ± 33", "unit": "mm^3"}
    ]}
  ]
}
